Active and inactive are the calls of the source. The calls are words filed in the database; no cut-off is given here.
How the values were obtained:
[1] = Inhibition of theophylline-stimulated melanogenesis in mouse B16-4A5 cells at 300 uM after 72 hrs; type: functional; settings: B16-4A5, 72 h
cells [2] = settings: Mus musculus, B16-4A5, 72 h, read-out: INH
Description: Inhibition of theophylline-stimulated melanogenesis in mouse B16-4A5 cells at 10 uM after 72 hrs

[3] = Inhibition of theophylline-stimulated melanogenesis in mouse B16-4A5 cells at 100 uM after 72 hrs; type: functional; settings: B16-4A5, 72 h
cells [4] = settings: Mus musculus, B16-4A5, 72 h, read-out: INH; remark: listed apart in the source
Description: Inhibition of theophylline-stimulated melanogenesis in mouse B16-4A5 cells at 30 uM after 72 hrs

[5] = Inhibition of theophylline-stimulated melanogenesis in mouse B16-4A5 cells at 1000 uM after 72 hrs; type: functional; settings: B16-4A5, 72 h
[6] = Effect on TRP1 mRNA expression in mouse B16-4A5 cells assessed as TRP1 mRNA/beta-actin mRNA expression ratio at 1 uM in presence of 1 mM theophylline after 72 hrs by RT-PCR; type: functional
[7] = biological target: T1, Mitogen-activated protein kinase 1 and 3 (ERK2 and ERK1) (Mus musculus) (UniProt P63085+Q63844); test: Inhibition of ERK1/2 phosphorylation in mouse B16-4A5 cells at 100 uM in presence of 1 mM theophylline after 72 hrs by immunoblot; type: cell-based
T1 sequence (P63085 whole entry, looked up): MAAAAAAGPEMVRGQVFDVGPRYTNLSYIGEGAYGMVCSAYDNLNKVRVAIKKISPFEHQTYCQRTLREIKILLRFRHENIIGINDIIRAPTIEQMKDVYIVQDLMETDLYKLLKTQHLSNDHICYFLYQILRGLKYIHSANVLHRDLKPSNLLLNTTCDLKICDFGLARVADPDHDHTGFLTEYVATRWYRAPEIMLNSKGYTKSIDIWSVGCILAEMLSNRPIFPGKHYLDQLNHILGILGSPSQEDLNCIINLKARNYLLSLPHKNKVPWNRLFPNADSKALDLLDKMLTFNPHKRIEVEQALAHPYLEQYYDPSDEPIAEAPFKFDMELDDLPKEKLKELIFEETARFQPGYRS
T1 sequence (Q63844 whole entry, looked up): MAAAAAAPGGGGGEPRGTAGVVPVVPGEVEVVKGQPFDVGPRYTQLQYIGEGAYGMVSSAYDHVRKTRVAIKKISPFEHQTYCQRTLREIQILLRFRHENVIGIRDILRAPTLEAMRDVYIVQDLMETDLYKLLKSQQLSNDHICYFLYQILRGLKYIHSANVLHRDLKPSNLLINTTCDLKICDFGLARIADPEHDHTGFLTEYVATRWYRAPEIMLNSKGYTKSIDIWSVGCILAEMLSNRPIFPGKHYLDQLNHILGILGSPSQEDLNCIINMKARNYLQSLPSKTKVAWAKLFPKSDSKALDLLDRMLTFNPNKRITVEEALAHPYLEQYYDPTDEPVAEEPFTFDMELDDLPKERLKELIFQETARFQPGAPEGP

[8] = Effect on tyrosinase mRNA expression in mouse B16-4A5 cells assessed as tyrosinase mRNA/beta-actin mRNA expression ratio at 1 uM in presence of 1 mM theophylline after 72 hrs by RT-PCR; type: functional
[9] = Effect on TRP2 mRNA expression in mouse B16-4A5 cells assessed as TRP2 mRNA/beta-actin mRNA expression ratio at 30 uM in presence of 1 mM theophylline after 72 hrs by RT-PCR; type: functional
cells [10] = settings: Mus musculus, B16-4A5, 72 h, read-out: INH; remark: listed apart in the source
Description: Inhibition of theophylline-stimulated melanogenesis in mouse B16-4A5 cells at 3 uM after 72 hrs

[11] = Effect on TRP2 mRNA expression in mouse B16-4A5 cells assessed as TRP2 mRNA/beta-actin mRNA expression ratio at 3 uM in presence of 1 mM theophylline after 72 hrs by RT-PCR; type: functional
[12] = biological target: T2, Tyrosinase (Agaricus bisporus) (UniProt O42713); test: Inhibition of mushroom tyrosinase at 1 uM
T2 sequence (whole entry): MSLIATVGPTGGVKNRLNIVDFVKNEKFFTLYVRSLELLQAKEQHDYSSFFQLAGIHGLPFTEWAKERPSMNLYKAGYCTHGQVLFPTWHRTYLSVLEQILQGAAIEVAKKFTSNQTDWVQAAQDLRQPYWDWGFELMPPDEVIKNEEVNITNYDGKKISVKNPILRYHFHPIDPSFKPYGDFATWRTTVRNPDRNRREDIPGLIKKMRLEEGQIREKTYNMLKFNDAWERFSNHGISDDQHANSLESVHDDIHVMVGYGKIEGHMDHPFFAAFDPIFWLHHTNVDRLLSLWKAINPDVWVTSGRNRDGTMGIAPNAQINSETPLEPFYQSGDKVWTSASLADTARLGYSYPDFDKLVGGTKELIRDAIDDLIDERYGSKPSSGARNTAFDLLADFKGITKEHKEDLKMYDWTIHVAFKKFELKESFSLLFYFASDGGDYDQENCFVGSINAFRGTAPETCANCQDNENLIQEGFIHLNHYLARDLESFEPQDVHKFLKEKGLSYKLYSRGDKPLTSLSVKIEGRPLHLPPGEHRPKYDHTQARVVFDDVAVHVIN

[13] = biological target: T2, Tyrosinase (Agaricus bisporus); test: Inhibition of mushroom tyrosinase assessed as inhibition of melanin production from dopachrome by autoxidation at 100 uM
cells [14] = settings: Mus musculus, B16-4A5, 72 h, read-out: INH; remark: listed apart in the source
Description: Inhibition of theophylline-stimulated melanogenesis in mouse B16-4A5 cells at 1 uM after 72 hrs

[15] = Toxicity in mouse B16-4A5 cells assessed as inhibition of cell proliferation at 10 uM in presence of 1 mM theophylline after 72 hrs by WST8 dye reduction assay; type: cell-based
[16] = Toxicity in mouse B16-4A5 cells assessed as inhibition of cell proliferation at 3 uM in presence of 1 mM theophylline after 72 hrs by WST8 dye reduction assay; type: cell-based
[17] = Effect on TRP1 mRNA expression in mouse B16-4A5 cells assessed as TRP1 mRNA/beta-actin mRNA expression ratio at 3 uM in presence of 1 mM theophylline after 72 hrs by RT-PCR; type: functional
[18] = Effect on tyrosinase mRNA expression in mouse B16-4A5 cells assessed as tyrosinase mRNA/beta-actin mRNA expression ratio at 30 uM in presence of 1 mM theophylline after 72 hrs by RT-PCR; type: functional
[19] = biological target: T2, Tyrosinase (Agaricus bisporus); test: Inhibition of mushroom tyrosinase at 3 uM
[20] = Effect on TRP2 mRNA expression in mouse B16-4A5 cells assessed as TRP2 mRNA/beta-actin mRNA expression ratio at 10 uM in presence of 1 mM theophylline after 72 hrs by RT-PCR; type: functional
[21] = Toxicity in mouse B16-4A5 cells assessed as inhibition of cell proliferation at 1 uM in presence of 1 mM theophylline after 72 hrs by WST8 dye reduction assay; type: cell-based
[22] = Effect on TRP2 mRNA expression in mouse B16-4A5 cells assessed as TRP2 mRNA/beta-actin mRNA expression ratio at 1 uM in presence of 1 mM theophylline after 72 hrs by RT-PCR; type: functional
[23] = Toxicity in mouse B16-4A5 cells assessed as inhibition of cell proliferation at 30 uM in presence of 1 mM theophylline after 72 hrs by WST8 dye reduction assay; type: cell-based
[24] = Effect on tyrosinase mRNA expression in mouse B16-4A5 cells assessed as tyrosinase mRNA/beta-actin mRNA expression ratio at 10 uM in presence of 1 mM theophylline after 72 hrs by RT-PCR; type: functional
[25] = Effect on TRP1 mRNA expression in mouse B16-4A5 cells assessed as TRP1 mRNA/beta-actin mRNA expression ratio at 30 uM in presence of 1 mM theophylline after 72 hrs by RT-PCR; type: functional
[26] = Effect on TRP1 mRNA expression in mouse B16-4A5 cells assessed as TRP1 mRNA/beta-actin mRNA expression ratio at 10 uM in presence of 1 mM theophylline after 72 hrs by RT-PCR; type: functional
[27] = Effect on tyrosinase mRNA expression in mouse B16-4A5 cells assessed as tyrosinase mRNA/beta-actin mRNA expression ratio at 3 uM in presence of 1 mM theophylline after 72 hrs by RT-PCR; type: functional
[28] = Toxicity in mouse B16-4A5 cells assessed as inhibition of cell proliferation in presence of 1 mM theophylline after 72 hrs by WST8 dye reduction assay; type: cell-based
Tyrosinase = biological target: T3, Tyrosinase (Agaricus bisporus, UniProt O42713); test: Inhibition of mushroom tyrosinase
T3 sequence (O42713 whole entry): T2 sequence (whole entry)

[29] = biological target: T1, Mitogen-activated protein kinase 1 and 3 (ERK2 and ERK1) (Mus musculus); test: Inhibition of ERK1/2 phosphorylation in mouse B16-4A5 cells at 10 to 30 uM in presence of 1 mM theophylline after 72 hrs by immunoblot; type: cell-based

SMILES	inhibition at 10 µM (cells [2]) [%]	inhibition at 30 µM (cells [4]) [%]	Ratio [6]	Ratio [8]	Ratio [9]	inhibition at 3 µM (cells [10]) [%]	Ratio [11]	inhibition [12] [%]	inhibition [13]	inhibition at 1 µM (cells [14]) [%]	inhibition at 72 h, 10 µM [15] [%]	inhibition at 72 h, 3 µM [16] [%]	Ratio [17]	Ratio [18]	inhibition [19] [%]	Ratio [20]	inhibition at 72 h, 1 µM [21] [%]	Ratio [22]	inhibition at 72 h, 30 µM [23] [%]	Ratio [24]	further results
OC[C@H]1O[C@@H](Oc2ccc(O)cc2)[C@H](O)[C@@H](O)[C@@H]1O [ARBUTIN]	10.6	20.4																			inhibition at 300 µM [1]: 61.5%; inhibition at 100 µM [3]: 38.1%; inhibition at 1000 µM [5]: 83.7%
COc1cc([C@H]2Oc3cc([C@H]4Oc5cc(O)cc(O)c5C(=O)[C@@H]4O)ccc3O[C@@H]2CO)ccc1O [SILYBIN A]	24.4	64.7	0.79	0.92	1.6	18.8	1	8.4	inactive	9.2	7.5	-10.7	0.89	2.11	10.3	2	-5.7	0.95	33.8	1.93	inhibition [7]: Active; Ratio [25]: 1.07; Ratio [26]: 1.6; Ratio [27]: 1.12; IC50 at 72 h [28]: > 100 µM
O=C1C[C@@H](c2ccc(O)c(O)c2)Oc2cc(O)cc(O)c21 [ERIODICTYOL]	32.3	46.3				10.5			inactive	6.5									< 8.8		inhibition at 100 µM [3]: 70.5%
O=c1c(O)c(-c2ccc(O)c(O)c2)oc2cc(O)cc(O)c12 [QUERCETIN]	34.3	72.5				17.1		3.5	inactive	13.9	-8.6	-7.7			4.8		-8.8		11.9		IC50 (Tyrosinase): 31 µM
COc1cc([C@H]2Oc3ccc([C@H]4Oc5cc(O)cc(O)c5C(=O)[C@@H]4O)cc3O[C@@H]2CO)ccc1O [ISOSILYBIN A]	50.2	72.1	1.11	0.73	0.36	19.8	0.63	5.1	inactive	11.7	-2.5	-1.5	1.26	0.56	7	0.63	-2.2	0.68	16	0.85	Ratio [25]: 0.6; Ratio [26]: 1.12; Ratio [27]: 0.97
COc1cccc(-c2cc(=O)c3ccccc3o2)c1N			0.92	1.01	1.69		1.2						1.18	1.79		1.3		1.12		1.61	Ratio [25]: 1.53; Ratio [26]: 1.32; Ratio [27]: 1.23
COc1cc([C@@H]2Oc3ccc([C@H]4Oc5cc(O)cc(O)c5C(=O)[C@@H]4O)cc3O[C@H]2CO)ccc1O [ISOSILYBIN B]	58	73.4	1.22	0.79	0.64	37.5	0.7	4.2	inactive	18.7			1.02	0.87	4.8	0.74		0.97	< 8.8	1.33	Ratio [25]: 1.14; Ratio [26]: 1.14; Ratio [27]: 1.15
O=c1cc(-c2ccc(O)c(O)c2)oc2cc(O)cc(O)c12 [LUTEOLIN]	38.1	76.7				13.5		6.4	inactive	6.2	4	-4.9			7.1		-4.8		23.4		IC50 at 72 h [28]: > 100 µM
COc1cc([C@@H]2Oc3cc([C@H]4Oc5cc(O)cc(O)c5C(=O)[C@@H]4O)ccc3O[C@H]2CO)ccc1O [SILYBIN B]	10.2	33	0.88	0.89	1.03	3	1.31	5.7		-0.2	11.8	-1.4	1.12	0.59	8.4	1.69	-2	0.78	44.4	1.27	inhibition [29]: Active; Ratio [25]: 0.73; Ratio [26]: 1.35; Ratio [27]: 0.95; IC50 at 72 h [28]: > 100 µM

From ChEMBL document CHEMBL1157646, “Melanogenesis inhibitors from the desert plant Anastatica hierochuntica in B16 melanoma cells” (Bioorg Med Chem, 2010)
